Test: Quantity of drug attached to the stent by UV absorbance and calibration curves
Type: physicochemical
Settings: FIG. 7
Experimental: In order to measure the quantity of α-lipoic acid and ReoPro attached to the stent, standard solutions with four concentrations were prepared for each drug. Absorbance was measured using a UV spectrometer (Shimadzu 1601, Japan) at 330 nm for α-lipoic acid and at 278 nm for ReoPro. Thus, calibration curves were drawn for α-lipoic acid and ReoPro. Then, in order to measure the quantity of the drugs attached to the stent, each 500 μL of the reaction solution was taken before and after the reaction, which were diluted by mixing with triple distilled water (2.5 mL) and subjected to absorbance measurement at 278 nm and 330 nm, respectively. The measurement result was compared with the calibration curves to determine the quantity of α-lipoic acid and ReoPro attached to the stent.
After binding a drug on the surface of the stent that had been modified with hydroxyl groups, the amount of the bound drug was calculated using the calibration curves. […] Therefore, it can be seen that a 10 to 50 W is ideal for modification of the titanium dioxide thin film using water.

SMILES: O=C(O)CCCCC1CCSS1 (stereo not drawn) [α-lipoic acid]
- quantity of attached α-lipoic acid (discharge power applied for the surface modification 20 W): 250 µg
- quantity of attached α-lipoic acid (surface modification at 60 W): decreased remarkably
- quantity of attached α-lipoic acid (thin films modified at 10, 30, 40 and 50 W): about 150 μg
